Data taken from patent publication US9416128B2, “Fused heterocyclic compounds as ion channel modulators” (Gilead Sciences, Inc., priority 2013, dated 2016).
Like-named read-outs stand apart in the source and are kept apart here.

Experiments:
[1] = target: wild-type human cardiac sodium channel, hNaV 1.5 (Late INa) (Homo sapiens, UniProt Q14524); assay: Late INa screening assay (whole cell patch clamp, QPatch, Tefluthrin-induced late current); assay type: cell-based; conditions: HEK293, % inhibition (percent block of late INa) at 1 uM; HEK293 hNaV1.5; 10 μM Tefluthrin; read-out: Nav1.5 Late INa 1 uM
wild-type human cardiac sodium channel, hNaV 1.5 (Late INa), sequence (Q14524 whole entry): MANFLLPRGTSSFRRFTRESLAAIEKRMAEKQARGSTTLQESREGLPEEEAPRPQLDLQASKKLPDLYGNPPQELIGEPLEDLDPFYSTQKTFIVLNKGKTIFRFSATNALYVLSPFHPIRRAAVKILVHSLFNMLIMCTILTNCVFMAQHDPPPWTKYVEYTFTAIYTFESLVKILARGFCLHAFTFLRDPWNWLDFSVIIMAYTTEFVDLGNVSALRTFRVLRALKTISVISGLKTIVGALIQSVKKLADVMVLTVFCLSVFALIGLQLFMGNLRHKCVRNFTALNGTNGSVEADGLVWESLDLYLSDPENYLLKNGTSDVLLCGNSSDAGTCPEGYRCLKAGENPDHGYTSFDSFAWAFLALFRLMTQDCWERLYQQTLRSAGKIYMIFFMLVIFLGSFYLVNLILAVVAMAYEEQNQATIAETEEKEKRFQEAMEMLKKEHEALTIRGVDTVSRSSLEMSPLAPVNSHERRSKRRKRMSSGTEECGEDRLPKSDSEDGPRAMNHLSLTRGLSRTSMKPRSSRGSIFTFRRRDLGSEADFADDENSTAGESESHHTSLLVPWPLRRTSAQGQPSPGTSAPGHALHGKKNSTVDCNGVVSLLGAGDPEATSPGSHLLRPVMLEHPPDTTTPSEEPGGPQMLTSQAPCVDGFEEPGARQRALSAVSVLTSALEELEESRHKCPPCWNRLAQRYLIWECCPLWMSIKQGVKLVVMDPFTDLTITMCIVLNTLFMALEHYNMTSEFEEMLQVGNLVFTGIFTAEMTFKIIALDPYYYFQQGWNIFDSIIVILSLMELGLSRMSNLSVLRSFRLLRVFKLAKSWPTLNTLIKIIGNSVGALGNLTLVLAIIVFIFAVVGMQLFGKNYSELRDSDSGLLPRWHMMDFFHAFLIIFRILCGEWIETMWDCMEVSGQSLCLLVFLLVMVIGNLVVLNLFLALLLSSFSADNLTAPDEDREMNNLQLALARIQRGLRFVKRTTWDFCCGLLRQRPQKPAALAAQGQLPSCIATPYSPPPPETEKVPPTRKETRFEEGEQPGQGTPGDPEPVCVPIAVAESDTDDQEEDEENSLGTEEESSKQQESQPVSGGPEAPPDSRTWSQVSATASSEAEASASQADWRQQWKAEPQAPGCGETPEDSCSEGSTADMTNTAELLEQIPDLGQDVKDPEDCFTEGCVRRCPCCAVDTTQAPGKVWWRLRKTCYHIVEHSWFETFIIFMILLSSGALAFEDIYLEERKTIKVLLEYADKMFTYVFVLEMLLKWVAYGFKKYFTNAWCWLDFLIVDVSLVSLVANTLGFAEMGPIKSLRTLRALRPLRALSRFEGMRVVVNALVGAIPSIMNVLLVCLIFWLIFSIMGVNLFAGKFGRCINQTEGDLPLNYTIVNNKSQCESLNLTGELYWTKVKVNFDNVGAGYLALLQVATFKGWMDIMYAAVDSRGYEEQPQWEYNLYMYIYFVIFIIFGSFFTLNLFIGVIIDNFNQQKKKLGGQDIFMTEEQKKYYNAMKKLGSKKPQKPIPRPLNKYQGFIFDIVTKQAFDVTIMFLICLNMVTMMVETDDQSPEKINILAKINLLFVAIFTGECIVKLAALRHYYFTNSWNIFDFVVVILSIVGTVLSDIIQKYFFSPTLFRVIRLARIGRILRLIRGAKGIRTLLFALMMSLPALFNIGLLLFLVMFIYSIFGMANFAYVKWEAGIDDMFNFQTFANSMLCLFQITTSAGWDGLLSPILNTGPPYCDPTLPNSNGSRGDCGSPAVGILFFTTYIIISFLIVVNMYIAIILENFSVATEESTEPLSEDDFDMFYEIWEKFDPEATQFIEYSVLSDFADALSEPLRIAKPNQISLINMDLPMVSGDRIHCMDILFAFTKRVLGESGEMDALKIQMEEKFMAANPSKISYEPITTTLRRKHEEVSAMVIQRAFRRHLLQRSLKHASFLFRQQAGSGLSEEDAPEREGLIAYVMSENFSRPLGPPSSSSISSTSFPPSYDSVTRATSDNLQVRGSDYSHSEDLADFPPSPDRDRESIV
Description: The cardiac late sodium current (Late INa) and peak sodium current (Peak INa) assays are performed on an automated electrophysiology platform, QPatch 16X or QPatch HT (Sophion Bioscience, Copenhagen, Denmark) using the whole cell patch clamp technique to measure currents through the cell membrane. The assay uses an HEK293 (human embryonic kidney) cell line heterologously expressing the wild-type human cardiac sodium channel, hNaV 1.5, purchased from Millipore (Billerica, Mass.). No beta subunits were coexpressed with the Na channel alpha subunit. Cells are maintained with standard tissue culture procedures and stable channel expression is maintained with 400 μg/mL Geneticin in the culture medium. Experiments are carried out at 23-25° C.
For both the Late INa and Peak INa assays, series resistance compensation is set to 100% and series resistance and whole-cell compensation are performed automatically. Currents are digitized at 25 kHz and low-pass filtered at 5 kHz and stored in the Sophion Bioscience Oracle database (Sophion Bioscience, Copenhagen, Denmark). Analysis is performed using QPatch Assay software and data are compiled in Excel 2010 (Microsoft, Seattle, Wash., U.S.A.).
Compound stocks are routinely made by the Gilead Sample Bank in vials to 10 mM in dimethyl sulfoxide (DMSO). In some cases, when compounds are not soluble in DMSO, they are made in 100% ethanol. Stocks are sonicated as necessary. The extracellular solution for screening Late INa is composed of: 140 mM NaCl, 4 mM KCl, 1.8 mM CaCl2, 1 mM MgCl2, 10 mM HEPES and 10 mM Dextrose with pH adjusted to 7.35 using NaOH. The intracellular solution contains: 105 mM CsF, 20 mM CsCl, 10 NaF, 2 mM EGTA, 10 mM HEPES and 10 mM Dextrose with pH adjusted to 7.35 with CsOH. Compounds are diluted in extracellular solution using a MicroLab Nimbus (Hamilton Robotics, Reno, Nev.) to between 0.3 and 3 μM in glass vials and transferred to glass well plates before robotic addition to the cells. The 0 mM Na extracellular solution (0Na-ECF) used at the end of each experiment for the Late INa and Peak INa assays to measure baseline current contains: 140 Choline-Cl; 4 mM KCl, 1.8 mM CaCl2; 1 mM MgCl2; 10 mM HEPES and 10 mM Dextrose with pH was adjusted to 7.35 with CsOH.
For the Late INa assay, sodium channels are activated every 10 seconds (0.1 Hz) by depolarizing the cell membrane to −20 mV for 250 milliseconds (ms) from a holding potential of −120 mV.
Compounds were tested to determine their activity in blocking the late sodium current. Late INa was generated by adding 10 μM Tefluthrin (pyrethroid) to the extracellular solution. For the purposes of the screening, Late INa is defined as the mean current between 240 ms and 265 ms during the voltage step to −20 mV. After establishing the whole cell recording configuration, Late INa activator is added to each well 4 times over a 15 minute period so that the late component of the Na current reaches a stable value. Compounds were then added (typically at 0.3 or 1 μM), in the presence of the Late INa activator, with 3 additions over the course of 5 minutes. Measurements were made at the end of exposure to the third compound addition and values were normalized to the current level when all Na^+ was removed from the extracellular solution after two additions of 0Na-ECF.
Results are reported as percent block of late INa and results were analyzed by incorporating rundown correction for the Late INa.

[2] = target: wild-type human cardiac sodium channel, hNaV 1.5 (Peak INa) (Homo sapiens, UniProt Q14524); assay: Peak INa screening assay (tonic block and use-dependent block); assay type: cell-based
wild-type human cardiac sodium channel, hNaV 1.5 (Peak INa), sequence (Q14524 whole entry): as above
Description: The assay uses an HEK293 (human embryonic kidney) cell line heterologously expressing the wild-type human cardiac sodium channel, hNaV 1.5, purchased from Millipore (Billerica, Mass.). No beta subunits were coexpressed with the Na channel alpha subunit. Cells are maintained with standard tissue culture procedures and stable channel expression is maintained with 400 μg/mL Geneticin in the culture medium. […] Currents are digitized at 25 kHz and low-pass filtered at 5 kHz and stored in the Sophion Bioscience Oracle database (Sophion Bioscience, Copenhagen, Denmark). Analysis is performed using QPatch Assay software and data are compiled in Excel 2010 (Microsoft, Seattle, Wash., U.S.A.). Compound stocks are routinely made by the Gilead Sample Bank in vials to 10 mM in dimethyl sulfoxide (DMSO). In some cases, when compounds are not soluble in DMSO, they are made in 100% ethanol. Stocks are sonicated as necessary. The extracellular solution for screening Late INa is composed of: 140 mM NaCl, 4 mM KCl, 1.8 mM CaCl2, 1 mM MgCl2, 10 mM HEPES and 10 mM Dextrose with pH adjusted to 7.35 using NaOH. The intracellular solution contains: 105 mM CsF, 20 mM CsCl, 10 NaF, 2 mM EGTA, 10 mM HEPES and 10 mM Dextrose with pH adjusted to 7.35 with CsOH. Compounds are diluted in extracellular solution using a MicroLab Nimbus (Hamilton Robotics, Reno, Nev.) to between 0.3 and 3 μM in glass vials and transferred to glass well plates before robotic addition to the cells. […] It is contemplated that the compounds of Formula I avoid significant block of peak INa. […] The intracellular solution used for the Peak INa assay is the same as outlined for the Late INa assay (see above). After establishing the whole cell recording configuration, channels were stimulated to open with low frequency (0.1 Hz) for so that the recording can be monitored and the extent to which the recording has stabilized can be assessed. The test compound is then applied at 1 or 3 μM was added 2 times at 60 second intervals. After the second compound addition, a 200 second wait period was imposed to allow for equilibration. Voltage protocols for TB and UDB are were performed in the absence and presence of compound and TB and UDB are calculated with respect to the compound free condition. Both TB and UDB were analyzed by incorporating rundown correction for the peak INa.

[3] = % inhibition, use-dependent block of peak INa at 3 uM, 3 Hz, pulse 50, read-out: Nav1.5 Peak UDB 3 Hz 3 uM
[4] = read-out: Nav1.5 Peak TB 3 uM, % inhibition, tonic block of peak INa at 3 uM, 0.1 Hz, holding -100 mV

## O=C1Oc2ccc(-c3ccc(C(F)(F)F)cc3F)cc2CN1Cc1ncccn1 [Example 36, 6-(2-fluoro-4-(trifluoromethyl)phenyl)-3-(pyrimidin-2-ylmethyl)-3,4-dihydro-2H-benzo[e][1,3]oxazin-2-one]
[1]
  inhibition at 1 µM: 43.6%
[2]; [3]
  inhibition at 3 µM: 5.9%
[2]; [4]
  inhibition at 3 µM: 11.5%

## O=C1Oc2ccc(-c3ccc(C(F)(F)F)cc3)cc2CN1Cc1ccccn1 [Example 24, 3-(pyridin-2-ylmethyl)-6-(4-(trifluoromethyl)phenyl)-3,4-dihydro-2H-benzo[e][1,3]oxazin-2-one]
[1]
  inhibition at 1 µM: 55.8%
[2]; [3]
  inhibition at 3 µM: 5.9%
[2]; [4]
  inhibition at 3 µM: 28.5%

## Cc1ccnc(CN2Cc3cc(-c4ccc(OC(F)(F)F)cc4)ccc3OC2=O)n1 [Example 29, 3-((4-methylpyrimidin-2-yl)methyl)-6-(4-(trifluoromethoxy)phenyl)-3,4-dihydro-2H-benzo[e][1,3]oxazin-2-one]
[1]
  inhibition at 1 µM: 61.6%
[2]; [3]
  inhibition at 3 µM: 14.1%
[2]; [4]
  inhibition at 3 µM: 36.1%

## O=C1Oc2ccc(-c3ccc(OC(F)(F)F)cc3F)cc2CN1Cc1ccccn1 [Example 21, 6-(2-fluoro-4-(trifluoromethoxy)phenyl)-3-(pyridin-2-ylmethyl)-3,4-dihydro-2H-benzo[e][1,3]oxazin-2-one]
[1]
  inhibition at 1 µM: 44.7%
[2]; [3]
  inhibition at 3 µM: < 5%
[2]; [4]
  inhibition at 3 µM: 23%

## Cc1cnc(CN2Cc3cc(-c4ccc(C(F)(F)F)cc4C)ccc3OC2=O)nc1 [Example 43, 6-(2-methyl-4-(trifluoromethyl)phenyl)-3-((5-methylpyrimidin-2-yl)methyl)-3,4-dihydro-2H-benzo[e][1,3]oxazin-2-one]
[1]
  inhibition at 1 µM: 37.9%
[2]; [3]
  inhibition at 3 µM: < 5%
[2]; [4]
  inhibition at 3 µM: 19.2%

## Cc1ccnc(CN2Cc3cc(-c4ccc(OC(F)(F)F)cc4C)ccc3OC2=O)n1 [Example 33, 6-(2-methyl-4-(trifluoromethoxy)phenyl)-3-((4-methylpyrimidin-2-yl)methyl)-3,4-dihydro-2H-benzo[e][1,3]oxazin-2-one]
[1]
  inhibition at 1 µM: 33%
[2]; [3]
  inhibition at 3 µM: < 5%
[2]; [4]
  inhibition at 3 µM: 27.8%

## Cc1csc(CN2Cc3cc(-c4ccc(OC(F)(F)F)c(C)c4)ccc3OC2=O)n1 [Example 54, 6-(3-methyl-4-(trifluoromethoxy)phenyl)-3-((4-methylthiazol-2-yl)methyl)-3,4-dihydro-2H-benzo[e][1,3]oxazin-2-one]
[1]
  inhibition at 1 µM: 31%
[2]; [3]
  inhibition at 3 µM: < 5%
[2]; [4]
  inhibition at 3 µM: 11.2%

## Cc1csc(CN2Cc3cc(-c4ccc(Cl)c(Cl)c4)ccc3OC2=O)n1 [Example 56, 6-(3,4-dichlorophenyl)-3-((4-methylthiazol-2-yl)methyl)-3,4-dihydro-2H-benzo[e][1,3]oxazin-2-one]
[1]
  inhibition at 1 µM: 39%
[2]; [3]
  inhibition at 3 µM: < 5%

## Cc1cnc(CN2Cc3cc(-c4ccc(C(F)(F)F)cc4)ccc3OC2=O)nc1 [Example 13, 3-((5-methylpyrimidin-2-yl)methyl)-6-(4-(trifluoromethyl)phenyl)-3,4-dihydro-2H-benzo[e][1,3]oxazin-2-one]
[1]
  inhibition at 1 µM: 49.6%
[2]; [3]
  inhibition at 3 µM: 5.6%
[2]; [4]
  inhibition at 3 µM: 29.4%

## Cc1cnc(CN2Cc3cc(-c4ccc(OC(F)(F)F)cc4)ccc3OC2=O)nc1 [Example 12, 3-((5-methylpyrimidin-2-yl)methyl)-6-(4-(trifluoromethoxy)phenyl)-3,4-dihydro-2H-benzo[e][1,3]oxazin-2-one]
[1]
  inhibition at 1 µM: 50.5%
[2]; [3]
  inhibition at 3 µM: < 5%
[2]; [4]
  inhibition at 3 µM: 16.6%

## Cc1cc(C(F)(F)F)ccc1-c1ccc2c(c1)CN(Cc1ncccn1)C(=O)O2 [Example 37, 6-(2-methyl-4-(trifluoromethyl)phenyl)-3-(pyrimidin-2-ylmethyl)-3,4-dihydro-2H-benzo[e][1,3]oxazin-2-one]
[1]
  inhibition at 1 µM: 41.1%
[2]; [3]
  inhibition at 3 µM: < 5%
[2]; [4]
  inhibition at 3 µM: 14%

## O=C1Oc2ccc(-c3ccc(OC(F)(F)F)cc3)cc2CN1CCc1ncccn1 [Example 16, 3-(2-(pyrimidin-2-yl)ethyl)-6-(4-(trifluoromethoxy)phenyl)-3,4-dihydro-2H-benzo[e][1,3]oxazin-2-one]
[1]
  inhibition at 1 µM: 48.5%
[2]; [3]
  inhibition at 3 µM: 5.3%
[2]; [4]
  inhibition at 3 µM: 22.1%

## Cc1csc(CN2Cc3cc(-c4ccc(OC(F)(F)F)cc4)ccc3OC2=O)n1 [Example 52, 3-((4-methylthiazol-2-yl)methyl)-6-(4-(trifluoromethoxy)phenyl)-3,4-dihydro-2H-benzo[e][1,3]oxazin-2-one]
[1]
  inhibition at 1 µM: 58%
[2]; [3]
  inhibition at 3 µM: < 5%
[2]; [4]
  inhibition at 3 µM: 11.9%

## O=C1Oc2ccc(-c3ccc(OC(F)(F)F)c(F)c3)cc2CN1Cc1ncccn1 [Example 10, 6-(3-fluoro-4-(trifluoromethoxy)phenyl)-3-(pyrimidin-2-ylmethyl)-3,4-dihydro-2H-benzo[e][1,3]oxazin-2-one]
[1]
  inhibition at 1 µM: 57.2%
[2]; [3]
  inhibition at 3 µM: 10.8%
[2]; [4]
  inhibition at 3 µM: 14.2%

## O=C1Oc2ccc(-c3ccc(OC(F)(F)F)cc3F)cc2CN1Cc1ncccn1 [Example 7, 6-(2-fluoro-4-(trifluoromethoxy)phenyl)-3-(pyrimidin-2-ylmethyl)-3,4-dihydro-2H-benzo[e][1,3]oxazin-2-one]
[1]
  inhibition at 1 µM: 42.3%
[2]; [3]
  inhibition at 3 µM: < 5%
[2]; [4]
  inhibition at 3 µM: 14.9%

## Cc1csc(CN2Cc3cc(-c4ccc(OC(F)(F)F)cc4F)ccc3OC2=O)n1 [Example 55, 6-(2-fluoro-4-(trifluoromethoxy)phenyl)-3-((4-methylthiazol-2-yl)methyl)-3,4-dihydro-2H-benzo[e][1,3]oxazin-2-one]
[1]
  inhibition at 1 µM: 35.3%
[2]; [3]
  inhibition at 3 µM: < 5%
[2]; [4]
  inhibition at 3 µM: 16.1%

## CCOc1cc(OC(F)(F)F)ccc1-c1ccc2c(c1)CN(Cc1ncccn1)C(=O)O2 [Example 40, 6-(2-ethoxy-4-(trifluoromethoxy)phenyl)-3-(pyrimidin-2-ylmethyl)-3,4-dihydro-2H-benzo[e][1,3]oxazin-2-one]
[1]
  inhibition at 1 µM: 49.4%
[2]; [3]
  inhibition at 3 µM: 10.2%
[2]; [4]
  inhibition at 3 µM: 22.4%
